Test results taken from patent publication US5883121A, “Epoxysuccinamide derivative or salt thereof, and medicine comprising the same” (Taiho Pharmaceutical Co., Ltd., priority 1995, dated 1999).
Where a name gives a salt, the structure may show the parent alone.

Columns and labels:
[1] = molecular target: T1, cathepsin L (Rattus norvegicus, UniProt P07154); experiment: Determination of inhibition rate against cathepsin L; type: biochemical; settings: for IC50: cathepsin L from rat liver, substrate Z-Phe-Arg-MCA, pH 5.5, 30° C, 10 minutes; for B/L: IC50 against cathepsin B divided by IC50 against cathepsin L
T1 construct: extracted from a rat liver and completely purified; from tissue; host or cells: rat liver
T1 sequence (P07154 114-288 limits assumed): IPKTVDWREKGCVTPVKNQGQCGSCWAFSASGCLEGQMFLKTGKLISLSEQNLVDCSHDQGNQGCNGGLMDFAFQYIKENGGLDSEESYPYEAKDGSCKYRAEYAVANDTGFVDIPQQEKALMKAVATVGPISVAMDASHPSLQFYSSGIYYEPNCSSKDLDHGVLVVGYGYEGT
T1 sequence (P07154 291-334 limits assumed): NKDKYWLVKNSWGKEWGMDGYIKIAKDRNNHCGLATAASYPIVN
Protocol: (§1) Determination of inhibition rate against cathepsin L, B and H […]
(§2) Each cathepsin was diluted with a diluent (0.1% Brij 35) to adjust its concentration to 0.3 U (0.1 U: a concentration at which 1.0 nmol of MCA is released per minute at 37° C.). To 500 μl of this solution, were added 250 μl of an activator/buffer (340 mM sodium acetate, 60 mM acetic acid, 4 mM disodium EDTA; pH 5.5). After the mixture was incubated for 1 minute at 30° C., the sample solution of the predetermined concentration and […] of a substrate solution were added to conduct a reaction for 10 minutes.

[2] = molecular target: T2, cathepsin B (Rattus norvegicus, UniProt P00787); experiment: Determination of inhibition rate against cathepsin B; type: biochemical; settings: cathepsin B from rat liver; substrate Z-Arg-Arg-MCA; pH 5.5; 30° C; 10 minutes
T2 construct: extracted from a rat liver and completely purified; from tissue; host or cells: rat liver
T2 sequence (P00787 129-333 limits assumed): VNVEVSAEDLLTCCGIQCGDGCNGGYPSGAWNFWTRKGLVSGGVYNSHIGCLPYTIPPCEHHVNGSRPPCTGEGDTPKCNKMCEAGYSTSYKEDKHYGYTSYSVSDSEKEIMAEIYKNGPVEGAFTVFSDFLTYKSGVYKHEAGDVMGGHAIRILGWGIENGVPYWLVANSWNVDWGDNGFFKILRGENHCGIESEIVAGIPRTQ
T2 sequence (P00787 80-126 limits assumed): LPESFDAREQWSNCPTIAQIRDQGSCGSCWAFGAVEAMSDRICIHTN
Protocol: as §1, §2

SMILES | IC50 [1] | B/L [1] | IC50 [2]
NCCCC[C@H](NC(=O)[C@H]1O[C@@H]1C(=O)NCCc1ccccc1)C(=O)NC1c2ccccc2-c2ccccc21 [Example 6, Nα-[L-3-trans-(2-phenylethylcarbamoyl)oxirane-2-carbonyl]-L-lysine-9-fluorenylamide hydrochloride] | 960 nM | – | –
NCCCC[C@H](NC(=O)[C@H]1O[C@@H]1C(=O)NC1Cc2ccccc2C1)C(=O)NC1c2ccccc2-c2ccccc21 [Example 10, Nα-[L-3-trans-(2-indanylcarbamoyl)oxirane-2-carbonyl]-L-lysine-9-fluorenylamide hydrochloride] | 870 nM | – | –
NCCCC[C@H](NC(=O)[C@H]1O[C@@H]1C(=O)NC1Cc2ccccc2C1)C(=O)Nc1cccc2ccccc12 [Example 12, Nα-[L-3-trans-(2-indanylcarbamoyl)oxirane-2-carbonyl]-L-lysine-1-naphthylamide hydrochloride] | 40 nM | > 250 | > 10000 nM
NCCCC[C@H](NC(=O)[C@H]1O[C@@H]1C(=O)N[C@@H](Cc1ccccc1)C(N)=O)C(=O)N(Cc1ccccc1)Cc1ccccc1 [Example 16, Nα-{L-3-trans-[(S)-1-carbamoyl-2-phenylethylcarbamoyl]oxirane-2-carbonyl}-L-lysine dibenzylamide hydrochloride] | 220 nM | – | –
NCCCC[C@H](NC(=O)[C@H]1O[C@@H]1C(=O)N[C@@H](Cc1ccccc1)C(=O)NCCc1ccccc1)C(=O)Nc1cccc2ccccc12 [Example 24, Nα-{L-3-trans-[(S)-1-(2-phenylethylcarbamoyl)-2-phenylethylcarbamoyl]oxirane-2-carbonyl}-L-lysine-1-naphthylamide hydrochloride] | 0.03 nM | 70000 | 2100 nM
CC(=O)NCCCC[C@H](NC(=O)[C@H]1O[C@@H]1C(=O)N[C@@H](Cc1ccccc1)C(N)=O)C(=O)Nc1cccc2ccccc12 [Example 31, Nα-{L-3-trans-[(S)-1-carbamoyl-2-phenylethylcarbamoyl]oxirane-2-carbonyl)-Nε-acetyl-L-lysine-1-naphthylamide] | 7 nM | – | –
NCCCC[C@H](NC(=O)[C@H]1O[C@@H]1C(=O)N[C@@H](Cc1ccccc1)C(=O)NCCc1ccccc1)C(=O)Nc1ccccc1 [Example 35, Nα-{L-3-trans-[(S)-1-(2-phenylethylcarbamoyl)-2-phenylethylcarbamoyl]oxirane-2-carbonyl}-L-lysine anilide hydrochloride] | 1.7 nM | 6470 | 11000 nM
COc1ccccc1NC(=O)[C@H](CCCCN)NC(=O)[C@H]1O[C@@H]1C(=O)N[C@@H](Cc1ccccc1)C(N)=O [Example 37, Nα-{L-3-trans-[(S)-1-carbamoyl-2-phenylethylcarbamoyl]oxirane-2-carbonyl}-L-lysine-2-methoxyanilide hydrochloride] | 6.4 nM | 3906 | 25000 nM
COc1ccccc1NC(=O)[C@H](CCCCN)NC(=O)[C@H]1O[C@@H]1C(=O)N[C@@H](Cc1ccccc1)C(=O)NCCc1ccccc1 [Example 39, Nα-{L-3-trans-[(S)-1-(2-phenylethylcarbamoyl)-2-phenylethylcarbamoyl]oxirane-2-carbonyl}-L-lysine-2-methoxyanilide hydrochloride] | 1.6 nM | 7500 | 12000 nM
NCCCC[C@H](NC(=O)[C@H]1O[C@@H]1C(=O)N[C@@H](Cc1ccccc1)C(=O)NCCc1ccccc1)C(=O)Nc1ccccc1C(F)(F)F [Example 43, Nα-{L-3-trans-[(S)-1-(2-phenylethylcarbamoyl)-2-phenylethylcarbamoyl]oxirane-2-carbonyl)-L-lysine-2-trifluoromethylanilide hydrochloride] | 3 nM | 30000 | 90000 nM
NCCCC[C@H](NC(=O)[C@H]1O[C@@H]1C(=O)N[C@@H](Cc1ccccc1)C(N)=O)C(=O)N1CCc2ccccc21 [Example 45, Nα-{L-3-trans-[(S)-1-carbamoyl-2-phenylethylcarbamoyl]oxirane-2-carbonyl}-L-lysine indolinylamide hydrochloride] | 70 nM | 571 | 40000 nM
NCCCC[C@H](NC(=O)[C@H]1O[C@@H]1C(=O)N[C@@H](Cc1ccccc1)C(=O)NCCc1ccccc1)C(=O)N1CCc2ccccc21 [Example 47, Nα-{L-3-trans-[(S)-1-(2-phenylethylcarbamoyl)-2-phenylethylcarbamoyl]oxirane-2-carbonyl}-L-lysine indolinylamide hydrochloride] | 0.1 nM | 150000 | 15000 nM
NCCCC[C@H](NC(=O)[C@H]1O[C@@H]1C(=O)N[C@@H](Cc1ccccc1)C(N)=O)C(=O)Nc1ccc(Cl)c2ccccc12 [Example 48, Nα-{L-3-trans-[(S)-1-carbamoyl-2-phenylethylcarbamoyl]oxirane-2-carbonyl}-L-lysine-1-(4-chloronaphthyl)amide hydrochloride] | – | 7045 | 3100 nM
NCCCC[C@H](NC(=O)[C@H]1O[C@@H]1C(=O)N[C@@H](Cc1ccccc1)C(=O)NCCc1ccccc1)C(=O)Nc1ccc(Cl)c2ccccc12 [Example 49, Nα-{L-3-trans-[(S)-1-(2-phenylethylcarbamoyl)-2-phenylethylcarbamoyl]oxirane-2-carbonyl}-L-lysine-1-(4-chloronaphthyl)amide hydrochloride] | 1.7 nM | 1176 | 2000 nM
CCCNC(=O)[C@H](Cc1ccccc1)NC(=O)[C@H]1O[C@@H]1C(=O)N[C@@H](CCCCN)C(=O)Nc1cccc2ccccc12 [Example 51, Nα-{L-3-trans-[(S)-1-propylcarbamoyl-2-phenylethylcarbamoyl]oxirane-2-carbonyl-L-lysine-1-naphthylamide hydrochloride] | < 0.1 nM | > 85000 | 8500 nM
NCCCC[C@H](NC(=O)[C@H]1O[C@@H]1C(=O)N[C@H](Cc1ccccc1)C(=O)NCCc1ccccc1)C(=O)Nc1cccc2ccccc12 [Example 53, Nα-{L-3-trans-[(R)-1-(2-phenylethylcarbamoyl)-2-phenylethylcarbamoyl]oxirane-2-carbonyl}-L-lysine-1-naphthylamide hydrochloride] | 90 nM | 333 | 30000 nM

Continued, values first:

IC50 [1] | B/L [1] | IC50 [2] | SMILES
18 nM | 2444 | 44000 nM | NCCCC[C@H](NC(=O)[C@H]1O[C@@H]1C(=O)N[C@@H](Cc1ccccc1)C(N)=O)C(=O)Nc1ccccc1 [Example 55, Nα-{L-3-trans-[(S)-1-carbamoyl-2-phenylethylcarbamoyl]oxirane-2-carbonyl}-Nε-L-lysine anilide hydrochloride]
9 nM | > 11111 | > 10000 nM | NCCCC[C@H](NC(=O)[C@H]1O[C@@H]1C(=O)N[C@@H](Cc1ccccc1)C(=O)Nc1ccccc1)C(=O)Nc1cccc2ccccc12 [Example 57, Nα-{L-3-trans-[(S)-1-phenylcarbamoyl-2-phenylethylcarbamoyl]oxirane-2-carbonyl}-L-lysine-1-naphthylamide hydrochloride]
2.7 nM | > 3703 | > 10000 nM | CCCNC(=O)[C@H](Cc1ccccc1)NC(=O)[C@H]1O[C@@H]1C(=O)N[C@@H](CCCCN)C(=O)Nc1ccccc1 [Example 59, Nα-{L-3-trans-[(S)-1-propylcarbamoyl-2-phenylethylcarbamoyl]oxirane-2-carbonyl}-L-lysine anilide hydrochloride]
2.8 nM | > 3571 | > 10000 nM | CC(C)NC(=O)[C@H](Cc1ccccc1)NC(=O)[C@H]1O[C@@H]1C(=O)N[C@@H](CCCCN)C(=O)Nc1ccccc1 [Example 61, Nα-{L-3-trans-[(S)-1-isopropylcarbamoyl-2-phenylethylcarbamoyl]oxirane-2-carbonyl}-L-lysine anilide hydrochloride]
5.2 nM | 1923 | > 10000 nM | CNC(=O)[C@H](Cc1ccccc1)NC(=O)[C@H]1O[C@@H]1C(=O)N[C@@H](CCCCN)C(=O)Nc1ccccc1 [Example 63, Nα-{L-3-trans-[(S)-1-methylcarbamoyl-2-phenylethylcarbamoyl]oxirane-2-carbonyl}-L-lysine anilide hydrochloride]
30 nM | > 333 | > 10000 nM | CN(C)C(=O)[C@H](Cc1ccccc1)NC(=O)[C@H]1O[C@@H]1C(=O)N[C@@H](CCCCN)C(=O)Nc1ccccc1 [Example 65, Nα-{L-3-trans-[(S)-1-dimethylcarbamoyl-2-phenylethylcarbamoyl]oxirane-2-carbonyl}-L-lysine anilide hydrochloride]
36 nM | 1570 | 68000 nM | CCNC(=O)[C@H](Cc1ccccc1)NC(=O)[C@H]1O[C@@H]1C(=O)N[C@@H](CCCCN)C(=O)Nc1ccccc1 [Example 67, Nα-{L-3-trans-[(S)-1-ethylcarbamoyl-2-phenylethylcarbamoyl]oxirane-2-carbonyl)-L-lysine anilide hydrochloride]
8.5 nM | > 1177 | > 10000 nM | NCCCC[C@H](NC(=O)[C@H]1O[C@@H]1C(=O)N[C@@H](Cc1ccccc1)C(=O)NC1CCCCC1)C(=O)Nc1ccccc1 [Example 69, Nα-{L-3-trans-[(S)-1-cyclohexylcarbamoyl-2-phenylethylcarbamoyl]oxirane-2-carbonyl}-L-lysine anilide hydrochloride]
